Reference: PubChem BioAssay AID256 (DTP/NCI, 2004)
Values joined by “and” are separate entries in the source; they are usually repeats but may differ in a detail not shown here. Equal values may be shown once. Inconclusive results and toxic doses are left out.

System: CD2F1 mice, L1210 leukemia ip, survival T/C
Assay: NCI In Vivo Anticancer Drug Screen. Data for tumor model L1210 Leukemia (intraperitoneal) in CD2F1 (CDF1) mice
Conditions: higher = longer survival
Summary of the method: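 Ratio T/C, where T is the treated-group value and C the vehicle-dosed control value, from mice implanted with a transplantable tumor.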

CN(C)/N=N/c1nc[nH]c1C(N)=O
T/C (endpoint: mean survival time, dose: 100.0 mg/kg/injection, schedule: Q03DX003 (ip), vehicle: saline): 120 % of control
T/C (endpoint: mean survival time, dose: 100.0 mg/kg/injection, schedule: Q03HX016 (ip), vehicle: steriod suspending solution): 122 % of control
T/C (endpoint: mean survival time, dose: 100.0 mg/kg/injection, schedule: Q03HX016 (oral), vehicle: steriod suspending solution): 116 % of control
T/C (endpoint: mean survival time, dose: 100.0 mg/kg/injection, schedule: Q04DX003 (ip), vehicle: Klucel (hydroxypropylcellulose) (HPC)): 114 % of control
T/C (endpoint: mean survival time, dose: 100.0 mg/kg/injection, schedule: Q04DX003 (ip), vehicle: other): 114 % of control and 120 % of control
T/C (endpoint: mean survival time, dose: 100.0 mg/kg/injection, schedule: Q04DX003 (ip), vehicle: saline): 108 % of control
T/C (endpoint: mean survival time, dose: 100.0 mg/kg/injection, schedule: Q04DX003 (ip), vehicle: steriod suspending solution): 116 % of control
T/C (endpoint: mean survival time, dose: 100.0 mg/kg/injection, schedule: Q04DX003 (oral), vehicle: steriod suspending solution): 116 % of control
T/C (endpoint: mean survival time, dose: 100.0 mg/kg/injection, schedule: Q08DX002 (ip), vehicle: steriod suspending solution): 117 % of control
T/C (endpoint: mean survival time, dose: 100.0 mg/kg/injection, schedule: Q08DX002 (oral), vehicle: steriod suspending solution): 115 % of control
T/C (endpoint: mean survival time, dose: 150.0 mg/kg/injection, schedule: Q01DX001 (oral), vehicle: saline): 101 % of control
T/C (endpoint: mean survival time, dose: 150.0 mg/kg/injection, schedule: Q01DX009 (ip), vehicle: Klucel (hydroxypropylcellulose) (HPC)): 172 % of control
T/C (endpoint: mean survival time, dose: 180.0 mg/kg/injection, schedule: Q04DX003 (ip), vehicle: saline): 114 % of control and 108 % of control
T/C (endpoint: mean survival time, dose: 182.0 mg/kg/injection, schedule: Q01DX009 (ip), vehicle: Klucel (hydroxypropylcellulose) (HPC)): 120 % of control
T/C (endpoint: mean survival time, dose: 200.0 mg/kg/injection, schedule: Q01DX001 (ip), vehicle: distilled water + Tween-80): 120 % of control
T/C (endpoint: mean survival time, dose: 200.0 mg/kg/injection, schedule: Q01DX007 (ip), vehicle: saline): 159 % of control
T/C (endpoint: mean survival time, dose: 200.0 mg/kg/injection, schedule: Q01DX009 (ip), vehicle: DMSO): 174 % of control
T/C (endpoint: mean survival time, dose: 200.0 mg/kg/injection, schedule: Q01DX009 (ip), vehicle: saline): 151 % of control
T/C (endpoint: mean survival time, dose: 200.0 mg/kg/injection, schedule: Q01DX009 (ip), vehicle: steriod suspending solution): 157 % of control
T/C (endpoint: mean survival time, dose: 200.0 mg/kg/injection, schedule: Q01DX009 (ip), vehicle: water): 118 % of control
T/C (endpoint: mean survival time, dose: 200.0 mg/kg/injection, schedule: Q01DX009 (oral), vehicle: steriod suspending solution): 169 % of control
T/C (endpoint: mean survival time, dose: 200.0 mg/kg/injection, schedule: Q04DX003 (ip), vehicle: Klucel (hydroxypropylcellulose) (HPC)): 123 % of control
T/C (endpoint: mean survival time, dose: 200.0 mg/kg/injection, schedule: Q04DX003 (ip), vehicle: steriod suspending solution): 116 % of control
T/C (endpoint: mean survival time, dose: 200.0 mg/kg/injection, schedule: Q04DX003 (oral), vehicle: steriod suspending solution): 122 % of control
T/C (endpoint: mean survival time, dose: 200.0 mg/kg/injection, schedule: Q08DX002 (oral), vehicle: steriod suspending solution): 118 % of control
T/C (endpoint: mean survival time, dose: 300.0 mg/kg/injection, schedule: Q01DX001 (oral), vehicle: saline): 113 % of control
T/C (endpoint: mean survival time, dose: 364.0 mg/kg/injection, schedule: Q01DX009 (ip), vehicle: Klucel (hydroxypropylcellulose) (HPC)): 63 % of control
T/C (endpoint: mean survival time, dose: 400.0 mg/kg/injection, schedule: Q01DX005 (ip), vehicle: other): 113 % of control
T/C (endpoint: mean survival time, dose: 400.0 mg/kg/injection, schedule: Q01DX009 (ip), vehicle: water): 96 % of control
T/C (endpoint: mean survival time, dose: 400.0 mg/kg/injection, schedule: Q01DX009 (oral), vehicle: steriod suspending solution): 152 % of control
T/C (endpoint: mean survival time, dose: 400.0 mg/kg/injection, schedule: Q08DX002 (ip), vehicle: steriod suspending solution): 121 % of control
T/C (endpoint: mean survival time, dose: 600.0 mg/kg/injection, schedule: Q01DX001 (oral), vehicle: saline): 121 % of control
T/C (endpoint: mean survival time, dose: 800.0 mg/kg/injection, schedule: Q08DX002 (ip), vehicle: steriod suspending solution): 164 % of control
T/C (endpoint: mean survival time, dose: 800.0 mg/kg/injection, schedule: Q08DX002 (oral), vehicle: steriod suspending solution): 123 % of control
T/C (endpoint: median survival time, dose: 9.8 mg/kg/injection, schedule: Q03HX008 (ip), vehicle: Klucel (hydroxypropylcellulose) (HPC)): 105 % of control
T/C (endpoint: median survival time, dose: 22.2 mg/kg/injection, schedule: Q03HX008 (ip), vehicle: Klucel (hydroxypropylcellulose) (HPC)): 114 % of control
T/C (endpoint: median survival time, dose: 33.3 mg/kg/injection, schedule: Q03HX008 (ip), vehicle: Klucel (hydroxypropylcellulose) (HPC)): 123 % of control
T/C (endpoint: median survival time, dose: 48.0 mg/kg/injection, schedule: Q01DX005 (ip), vehicle: Klucel (hydroxypropylcellulose) (HPC)): 115 % of control
T/C (endpoint: median survival time, dose: 50.0 mg/kg/injection, schedule: Q02DX005 (ip), vehicle: Klucel (hydroxypropylcellulose) (HPC)): 121 % of control
T/C (endpoint: median survival time, dose: 72.0 mg/kg/injection, schedule: Q01DX005 (ip), vehicle: Klucel (hydroxypropylcellulose) (HPC)): 123 % of control
T/C (endpoint: median survival time, dose: 100.0 mg/kg/injection, schedule: Q02DX005 (ip), vehicle: Klucel (hydroxypropylcellulose) (HPC)): 117 % of control
T/C (endpoint: median survival time, dose: 108.0 mg/kg/injection, schedule: Q01DX005 (ip), vehicle: Klucel (hydroxypropylcellulose) (HPC)): 124 % of control
T/C (endpoint: median survival time, dose: 240.0 mg/kg/injection, schedule: Q01DX001 (ip), vehicle: Klucel (hydroxypropylcellulose) (HPC)): 115 % of control
T/C (endpoint: median survival time, dose: 600.0 mg/kg/injection, schedule: Q01DX001 (ip), vehicle: Klucel (hydroxypropylcellulose) (HPC)): 121 % of control
T/C (endpoint: median survival time, dose: 900.0 mg/kg/injection, schedule: Q01DX001 (ip), vehicle: Klucel (hydroxypropylcellulose) (HPC)): 123 % of control
